Consider 52 compounds from PubChem BioAssay AID1996.

Converted amounts (≈) assume the structure as drawn. Some results are limits rather than exact numbers.

For the data set the following is noted: buffer; pH 7.4; 200.0 µM.
`O=C(C1CC2C=CC1C2)N1CCN(c2ccccc2)CC1` (configuration not stated): the kinetic solubility (as a rule, the concentration staying in solution when a stock, usually in DMSO, is diluted into the medium) was greater than 42.4 µg/mL. For the compound `Cc1ccc(C2CC(=O)NC(SCC(N)=O)=C2C#N)s1` (configuration not stated), the solubility (kinetic) is greater than 46.1 µg/mL. With `Cc1ccc(N2CCN(C(=O)NC3CCCCC3)CC2)c(C)c1`, the kinetic solubility stood at 1.6 µg/mL (≈ 5.07 µM). As for `CCNc1nc2c(c(=O)[nH]c(=O)n2C)n1CCCc1ccccc1`, the solubility (kinetic) is 20.8 µg/mL (≈ 63.5 µM).

`CCCCOC(=O)N1CCOCCOCCOCCOCC1`: the kinetic solubility was greater than 47.9 µg/mL. Consider `CN(CC(=O)Nc1ccc(F)cc1)CC(=O)N1CCCC1`, for which the solubility (kinetic) was 43 µg/mL (≈ 147 µM).

The compound `N#CCNC1CC(=O)N(c2ccc(F)cc2)C1=O` (configuration not stated) yielded a kinetic solubility of 29.9 µg/mL (≈ 121 µM).

The compound `Cc1ccc(NC(=O)NCc2cccn2C)cc1C` gave a solubility (kinetic) of 2.2 µg/mL (≈ 8.55 µM). For `CC(=O)Nc1ccc(CN2CCN(C3CCCC3)C(CCO)C2)cc1` (configuration not stated) the value was greater than 51.8 µg/mL; for `Cc1nc2ccccc2c(=O)n1-c1cc([N+](=O)[O-])cc([N+](=O)[O-])c1`, 17.1 µg/mL (≈ 52.4 µM); for `CC(=O)C1=C(O)C(=O)N(Cc2ccccc2)C1c1ccc(Cl)cc1` (configuration not stated), greater than 51.3 µg/mL. As to `Cc1cccc(C)c1OCC(O)CN1CCc2ccccc2C1.Cl` (configuration not stated), the kinetic solubility is greater than 52.2 µg/mL.

In turn, `CCOc1ccc(NC(=S)N2CCCC2)cc1` showed a kinetic solubility greater than 37.6 µg/mL.

`CCC(CO)n1c(=S)[nH]c2cc(OC)c(OC)cc2c1=O` (configuration not stated) gave a kinetic solubility greater than 46.6 µg/mL. As for `Cc1ccc(NC(=S)c2ccncc2)c(C)c1`, the figure is 34.2 µg/mL (≈ 141 µM); as for `O=C(COc1ccc2ccccc2c1)Nc1nccs1`, 3.9 µg/mL (≈ 13.7 µM); as for `COc1cccc(C=O)c1OCCCOc1cccc2cccnc12`, 34.9 µg/mL (≈ 103 µM). `C#CCn1c(C)cc(C)c(S(=O)(=O)c2ccccc2)c1=O` displayed a solubility (kinetic) greater than 45.2 µg/mL. For `COc1ccccc1C(=O)NCC(=O)NCCc1ccc(Cl)cc1` the value was 38.8 µg/mL (≈ 112 µM); for `Cl.NCc1ccccc1`, greater than 21.5 µg/mL; for `Cc1onc(-c2c(Cl)cccc2Cl)c1NC(=O)N1CCSCC1`, greater than 55.8 µg/mL.

`Cc1cc(C)cc(NC(=O)CN2CCN(C(=O)C3CCCO3)CC2)c1` (configuration not stated) registered a solubility (kinetic) greater than 51.8 µg/mL. `CC(NC(=O)Cc1ccsc1)c1ccc(Cl)cc1Cl` (configuration not stated) had a kinetic solubility of 3.8 µg/mL (≈ 12.1 µM).

Compound `CC1CCCCN1Cc1cccnc1.O=C(O)C(=O)O` (configuration not stated) came in with a solubility (kinetic) greater than 42 µg/mL. The compound `O=c1[nH]c(CSc2nc3ccccc3s2)nc2ccccc12` showed a solubility (kinetic) of 1.5 µg/mL (≈ 4.61 µM). For `Cc1nccn1-c1ccc(C=O)cc1` the value was 27.6 µg/mL (≈ 148 µM); for `O=C(O)CCC(=O)N(Cc1ccccc1)Cc1ccccc1`, greater than 44.6 µg/mL. As for `Cc1ccc(N2CCN(S(=O)(=O)N3CCCCC3)CC2)cc1C`, the figure is 1.8 µg/mL (≈ 5.33 µM); as for `CCc1ccccc1NC(=O)C1COc2ccccc2O1` (configuration not stated), 33.4 µg/mL (≈ 118 µM).

Consider `O=C(NCc1ccco1)c1cc(Cl)nc(Cl)c1`, for which the kinetic solubility was 40.3 µg/mL (≈ 149 µM). As for `Cc1ccc(N2C(=O)CCC(C(=O)O)C2c2cccs2)cc1` (configuration not stated), the figure is 46.3 µg/mL (≈ 147 µM). For `CCn1c(O)c(C=NCc2ccccc2)sc1=S` the value was less than 0.3 µg/mL; for `O=C(Cc1ccccc1)NCC(=O)N1CCc2ccccc2C1`, greater than 46.3 µg/mL. On to `COc1ccc(C(C)=O)cc1CC(=O)Nc1ccc2c(c1)CCC2`, for which the kinetic solubility was 7.9 µg/mL (≈ 24.4 µM). `Cc1cccc(C(=O)NCC(=O)NC(C)CCc2ccccc2)c1` (configuration not stated) registered a solubility (kinetic) of 40.8 µg/mL (≈ 126 µM). The compound `CN1CCC(N(C)C(=O)c2cccc(S(=O)(=O)N3CCc4ccccc43)c2)CC1` yielded a kinetic solubility greater than 62 µg/mL. As for `Cc1ccc(NCCC(=O)c2cccc([N+](=O)[O-])c2)c(C)c1`, the figure is 1.7 µg/mL (≈ 5.7 µM); as for `Cc1ccc(CCSc2ccc(F)cc2)cn1.O=C(O)C(=O)O`, 25.2 µg/mL. On to `Cc1cc(C)c(NC(=O)CSCc2c(C)noc2C)c(C)c1`, for which the kinetic solubility turned out to be 28.1 µg/mL (≈ 88.2 µM). With `CC(NC(=O)c1cc(F)c(F)cc1Cl)c1ccncc1` (configuration not stated), the solubility (kinetic) was greater than 44.5 µg/mL. Compound `S=C(c1ccc(OCc2ccccc2)cc1)N1CCCC1` gave a kinetic solubility of less than 0.6 µg/mL. In turn, `Cl.O=c1cn[nH]c2ccccc12` registered a kinetic solubility greater than 27.4 µg/mL. As for `CC(NS(=O)(=O)c1ccccc1Cl)C1CC2CCC1C2` (configuration not stated), the figure is 1.1 µg/mL (≈ 3.5 µM); as for `CC1C(=O)N2CCCc3cc(NC(=O)C4CC4)cc1c32` (configuration not stated), 36.3 µg/mL (≈ 134 µM); as for `CCN(CC(=O)NCc1ccccn1)S(=O)(=O)c1ccc(OC)cc1`, greater than 54.5 µg/mL. For `O=C1c2ccccc2CN1C(CO)c1ccccc1` (configuration not stated), the kinetic solubility stood at 34.7 µg/mL (≈ 137 µM). Regarding `O=C(CN1C(=O)NC(c2ccccc2)(c2ccccc2)C1=O)NCCNCCO`, the solubility (kinetic) is greater than 59.5 µg/mL. For `COC(=O)c1sc(-c2cccs2)cc1N` the value was 7.2 µg/mL (≈ 30.1 µM); for `Cc1ccc(NC(=O)NCCN2CCCCC2)cc1C`, 37.4 µg/mL (≈ 136 µM); for `Cc1cc(C(=O)NC2CCCCCCC2)ccc1[N+](=O)[O-]`, 1.1 µg/mL (≈ 3.79 µM). In turn, `CCOC(=O)C(=CNc1cc(C)ccc1[N+](=O)[O-])C(=O)OCC` showed a kinetic solubility of less than 0.3 µg/mL.

`Cc1cc[n+](C(C)C(=O)c2ccc(Cl)cc2)cc1.[Br-]` (configuration not stated) came in with a solubility (kinetic) greater than 51.1 µg/mL.
